The values that follow come from US7732603B2, “Organic compounds as agents for the treatment of aldosterone mediated conditions” (Novartis AG, priority 2002, dated 2010).

Structures can show the parent of a compound that is named as a salt.

In the case of `Cl.N#Cc1ccc(C2C(=O)N(Cc3ccc(Cl)cc3)Cc3cncn32)cc1` (stereo not drawn), the melting point is 245 to 246 °C.

Compound `Cl.N#Cc1ccc(C2C(=O)N(Cc3ccc(C(F)(F)F)cc3)Cc3cncn32)cc1` (stereo not drawn) yielded a melting point of 234 to 236 °C.

`Cc1cccc(CN2Cc3cncn3C(c3ccc(C#N)cc3)C2=O)c1.Cl` (stereo not drawn) gave a melting point of 275 to 277 °C.

Regarding `Cl.N#Cc1ccc(C2C(=O)N(Cc3cccc(C(F)(F)F)c3)Cc3cncn32)cc1` (stereo not drawn), the melting point lay within 250 to 252 °C.

Consider `Cl.O=C1C(c2ccccc2)n2cncc2CN1Cc1ccccc1` (stereo not drawn), for which the melting point is 249 to 251 °C.

Take `CN1Cc2cncn2C(c2ccccc2)C1=O.Cl` (stereo not drawn): the melting point was in the range of 252 to 254 °C.

`CN1Cc2cncn2C(c2ccc(C#N)cc2)C1=O.Cl` (stereo not drawn) registered a melting point of 222 to 224 °C.

`Cl.O=C1C(c2ccc(Br)cc2)n2cncc2CN1CC1CC1` (stereo not drawn) gave a melting point of 223 to 225 °C.

With `Cl.O=C1C(c2ccc(Br)cc2)n2cncc2CN1Cc1ccccc1` (stereo not drawn), the melting point was 250 °C (dec.).

Compound `Cl.O=C1C(c2ccc(Br)cc2)n2cncc2CN1Cc1ccc(Cl)cc1` (stereo not drawn) registered a melting point of 158 to 159 °C.

As for `Cl.O=C1C(c2ccc(Br)cc2)n2cncc2CN1Cc1ccc(C(F)(F)F)cc1` (stereo not drawn), the melting point lay in the range of 113 to 114 °C.

Take `COc1ccc(N2Cc3cncn3C(c3ccc(Br)cc3)C2=O)cc1.Cl` (stereo not drawn): the melting point lay in the range of 149 to 150 °C.

`Cl.O=C1C(c2ccc(Br)cc2)n2cncc2CN1CCc1ccc(F)cc1` (stereo not drawn) yielded a melting point of 136 to 138 °C.

The compound `Cl.O=C1C(c2ccc(Br)cc2)n2cncc2CN1Cc1ccc(F)cc1` (stereo not drawn) gave a melting point of 205 to 207 °C.

Turning to `CN1Cc2cncn2C(c2cccc(Br)c2)C1=O.Cl` (stereo not drawn), the melting point is 265 °C (dec.).

Regarding `O=C(O)C(=O)O.O=C1C(c2cccc(Br)c2)n2cncc2CN1C1CCCCC1` (stereo not drawn), the melting point was in the range of 129 to 131 °C.

As to `Cl.O=C1C(c2cccc(Br)c2)n2cncc2CN1Cc1ccccc1` (stereo not drawn), the melting point was in the range of 249 to 251 °C.

In turn, `COc1ccc(CN2Cc3cncn3C(c3cccc(Br)c3)C2=O)cc1.Cl` (stereo not drawn) had a melting point of 246 to 248 °C.

The compound `Cl.O=C1C(c2cccc(Br)c2)n2cncc2CN1Cc1ccc(F)cc1` (stereo not drawn) had a melting point of 246 to 248 °C.

`Cl.O=C1C(c2cccc(Br)c2)n2cncc2CN1Cc1ccc(Cl)cc1` (stereo not drawn) returned a melting point of 268 to 270 °C.

Compound `Cc1ccc(CN2Cc3cncn3C(c3cccc(Br)c3)C2=O)cc1.Cl` (stereo not drawn) showed a melting point of 265 to 267 °C.

For the compound `Cl.O=C1C(c2cccc(Br)c2)n2cncc2CN1Cc1ccc(C(F)(F)F)cc1` (stereo not drawn), the melting point fell in the range of 269 to 271 °C.

Regarding `Cl.O=C1C(c2cccc(Br)c2)n2cncc2CN1Cc1cccc(C(F)(F)F)c1` (stereo not drawn), the melting point fell in the range of 246 to 248 °C.

Compound `Cl.O=C1C(c2cccc(Br)c2)n2cncc2CN1Cc1cccc(F)c1` (stereo not drawn) came in with a melting point of 240 to 243 °C.

As to `Cc1cccc(CN2Cc3cncn3C(c3cccc(Br)c3)C2=O)c1.Cl` (stereo not drawn), the melting point fell in the range of 248 to 249 °C.

For the compound `Cl.O=C1C(c2cccc(Br)c2)n2cncc2CN1CCc1ccccc1` (stereo not drawn), the melting point lay in the range of 205 to 207 °C.

On to `COc1ccc(CCN2Cc3cncn3C(c3cccc(Br)c3)C2=O)cc1.Cl` (stereo not drawn), for which the melting point lay in the range of 202 to 204 °C.

As to `Cl.O=C1C(c2cccc(Br)c2)n2cncc2CN1CCc1ccc(Cl)cc1` (stereo not drawn), the melting point was 225 to 226 °C.

Compound `Cl.O=C1C(c2cccc(Br)c2)n2cncc2CN1CCc1cccc(Cl)c1` (stereo not drawn) came in with a melting point of 184 to 186 °C.

On to `Cc1ccc(CCN2Cc3cncn3C(c3cccc(Br)c3)C2=O)cc1.Cl` (stereo not drawn), for which the melting point lay in the range of 197 to 199 °C.

`Cl.O=C1C(c2cccc(Br)c2)n2cncc2CN1CCc1ccc(F)cc1` (stereo not drawn) showed a melting point of 179 to 180 °C.

For the compound `Cl.O=C1C(c2cccc(Br)c2)n2cncc2CN1Cc1cccs1` (stereo not drawn), the melting point fell in the range of 233 to 235 °C.

`Cl.O=C1C(c2cccc(Br)c2)n2cncc2CN1Cc1ccco1` (stereo not drawn) came in with a melting point of 215 to 218 °C.

As to `Cl.O=C1Cn2cncc2CN1Cc1ccccc1`, the melting point was 201 to 204 °C.

Consider `Cc1ccc(CN2Cc3cncn3C(c3cccc(C#N)c3)C2=O)cc1.Cl` (stereo not drawn), for which the melting point fell in the range of 260 to 263 °C.

The compound `Cl.N#Cc1cccc(C2C(=O)N(Cc3ccc(F)cc3)Cc3cncn32)c1` (stereo not drawn) returned a melting point of 260 to 263 °C.

`Cl.N#Cc1cccc(C2C(=O)N(Cc3ccc(Cl)cc3)Cc3cncn32)c1` (stereo not drawn) showed a melting point of 236 to 238 °C.

As for `Cl.N#Cc1ccc(C2C(=O)N(CCc3ccc(F)cc3)Cc3cncn32)cc1` (stereo not drawn), the melting point was in the range of 160 to 162 °C.

With `COc1ccc(CN2Cc3cncn3C(c3cccc(C#N)c3)C2=O)cc1.Cl` (stereo not drawn), the melting point is 246 to 248 °C.

As to `Cl.N#Cc1cccc(C2C(=O)N(CCc3ccc(F)cc3)Cc3cncn32)c1` (stereo not drawn), the melting point lay within 221 to 223 °C.

For `Cl.N#Cc1cccc(C2C(=O)N(CCc3ccccc3)Cc3cncn32)c1` (stereo not drawn), the melting point is 203 to 205 °C.

Compound `Cl.N#Cc1cccc(C2C(=O)N(CC3CC3)Cc3cncn32)c1` (stereo not drawn) showed a melting point of 225 to 227 °C.

Compound `COc1ccc(CN2Cc3cncn3C(c3ccc(-c4ccc(Cl)cc4)cc3)C2=O)cc1.Cl` (stereo not drawn) showed a melting point of 270 to 273 °C.

As for `Cl.O=C1C(c2ccc(-c3ccsc3)cc2)n2cncc2CN1CC1CC1` (stereo not drawn), the melting point was 217 to 219 °C.

In turn, `Cl.O=C1C(c2cccc(-c3ccc(F)cc3)c2)n2cncc2CN1Cc1ccccc1` (stereo not drawn) displayed a melting point of 235 to 237 °C.

As for `Cl.O=C1C(c2cccc(-c3ccccc3)c2)n2cncc2CN1Cc1ccccc1` (stereo not drawn), the melting point was in the range of 232 to 234 °C.

Take `Cl.Cl.N#Cc1ccc(C2C(=O)N(CCCN3CCOCC3)Cc3cncn32)cc1` (stereo not drawn): the melting point was in the range of 246 to 248 °C.

The compound `COC(=O)c1ccc(C2C(=O)N(Cc3ccccc3)Cc3cncn32)cc1.Cl` (stereo not drawn) showed a melting point of 236 to 238 °C.

As to `CC1(c2ccc(C#N)cc2)C(=O)N(Cc2ccccc2)Cc2cncn21.Cl` (stereo not drawn), the melting point lay in the range of 230 to 232 °C.

With `CC1(c2ccc(Br)cc2)C(=O)N(CC2CC2)Cc2cncn21.Cl` (stereo not drawn), the melting point was in the range of 228 to 230 °C.

`CC1(c2cccc(Br)c2)C(=O)N(CC2CC2)Cc2cncn21.Cl` (stereo not drawn) came in with a melting point of 234 to 236 °C.

Take `CC1(c2ccc(Br)cc2)C(=O)N(Cc2ccc(F)cc2)Cc2cncn21.Cl` (stereo not drawn): the melting point is 235 to 237 °C.

The compound `Brc1ccc(C2CN(Cc3ccccc3)Cc3cncn32)cc1` (stereo not drawn) (as salt: toluene sulfonate) [Example 91, 5-(4-Bromophenyl)-7-benzyl-5,6,7,8-tetrahydro-imidazo[1,5-a]pyrazine p-toluene sulfonate] returned a melting point of 223 to 225 °C.

The compound `C[C@H](c1ccccc1)N1Cc2cncn2C(c2cccc(Br)c2)C1=O` (single isomer, unassigned; (+)) [Example 58] returned a melting point of 45 to 50 °C.

In turn, `C[C@H](c1ccccc1)N1Cc2cncn2C(c2ccc(Br)cc2)C1=O` (single isomer, unassigned; (+)) [Example 60] had a melting point of 147 to 148 °C.

On to `C[C@@H](c1ccccc1)N1Cc2cncn2C(c2cccc(Br)c2)C1=O` (single isomer, unassigned; (-)) [Example 59], for which the melting point was 55 to 70 °C.

`C[C@@H](c1ccccc1)N1Cc2cncn2C(c2ccc(Br)cc2)C1=O` (single isomer, unassigned; (-)) [Example 61]: the melting point lay within 167 to 168 °C.

With `C[C@@H](c1ccccc1)N1Cc2cncn2C(c2ccc(C#N)cc2)C1=O` (single isomer, unassigned; (-)) [Example 62], the melting point fell in the range of 157 to 158 °C.

As to `C=CCN1Cc2cncn2C(c2ccc(C#N)cc2)C1=O` (stereo not drawn) [Example 4, 4-(7-Allyl-6-oxo-5,6,7,8-tetrahydro-imidazo[1,5-a]pyrazin-5-yl)-benzonitrile], the melting point is 107 to 109 °C.

Compound `CCCN1Cc2cncn2C(c2ccc(C#N)cc2)C1=O` (stereo not drawn) [Example 5, 4-(6-Oxo-7-propyl-5,6,7,8-tetrahydro-imidazo[1,5-a]pyrazin-5-yl)-benzonitrile] had a melting point of 97 to 98 °C.

With `CC(C)N1Cc2cncn2C(c2ccc(C#N)cc2)C1=O` (stereo not drawn) [Example 6, 4-(7-Isopropyl-6-oxo-5,6,7,8-tetrahydro-imidazo[1,5-a]pyrazin-5-yl)-benzonitrile], the melting point is 122 to 124 °C.

In the case of `COc1ccc(CN2Cc3cncn3C(c3ccc(C#N)cc3)C2=O)cc1` (stereo not drawn) [Example 9, 4-[7-(4-Methoxy-benzyl)-6-oxo-5,6,7,8-tetrahydro-imidazo[1,5-a]pyrazin-5-yl)-benzonitrile], the melting point was 155 to 157 °C.

Compound `Cc1ccc(CN2Cc3cncn3C(c3ccc(C#N)cc3)C2=O)cc1` (stereo not drawn) [Example 10, 4-[7-(4-Methyl-benzyl)-6-oxo-5,6,7,8-tetrahydro-imidazo[1,5-a]pyrazin-5-yl)-benzonitrile] came in with a melting point of 168 to 170 °C.

`N#Cc1ccc(C2C(=O)N(Cc3ccc(F)cc3)Cc3cncn32)cc1` (stereo not drawn) [Example 14, 4-[6-Oxo-7-(4-fluoro-benzyl)-5,6,7,8-tetrahydro-imidazo[1,5-a]pyrazin-5-yl]-benzonitrile]: the melting point was 132 to 135 °C.

With `N#Cc1ccc(C2C(=O)N(Cc3ccc(Cl)c(Cl)c3)Cc3cncn32)cc1` (stereo not drawn) [Example 16], the melting point fell in the range of 175 to 176 °C.

`CN1Cc2cncn2C(c2ccc(Br)cc2)C1=O` (stereo not drawn) [Example 20, 5-(4-Bromo-phenyl)-7-methyl-7,8-dihydro-imidazo[1,5-a]pyrazin-6-one]: the melting point lay in the range of 143 to 144 °C.

In turn, `COc1ccc(CN2Cc3cncn3C(c3ccc(Br)cc3)C2=O)cc1` (stereo not drawn) [Example 21, 5-(4-Bromo-phenyl)-7-(4-methoxy-benzyl)-7,8-dihydro-imidazo[1,5-a]pyrazin-6-one] registered a melting point of 123 to 124 °C.

The compound `O=C1C(c2cccc(Br)c2)n2cncc2CN1Cc1ccsc1` (stereo not drawn) [Example 50, 5-(3-Bromo-phenyl)-7-thiophen-3-ylmethyl-7,8-dihydro-imidazo[1,5-a]pyrazin-6-one] showed a melting point of 43 to 45 °C.

The compound `O=C1C(c2cccc(Br)c2)n2cncc2CN1Cc1cccnc1` (stereo not drawn) [Example 52, 5-(3-Bromo-phenyl)-7-pyridin-3-ylmethyl-7,8-dihydro-imidazo[1,5-a]pyrazin-6-one] displayed a melting point of 50 to 54 °C.
